{
  "source": "paper PMC8348589",
  "about": "“Scarlet Flax Linum grandiflorum (L.) In Vitro Cultures as a New Source of Antioxidant and Anti-Inflammatory Lignans” (Molecules, 2021)",
  "key": {"COX-1": {"molecular_target": "T1, COX-1 (Ovis aries, UniProt P05979)", "T1 sequence (P05979 25-600)": "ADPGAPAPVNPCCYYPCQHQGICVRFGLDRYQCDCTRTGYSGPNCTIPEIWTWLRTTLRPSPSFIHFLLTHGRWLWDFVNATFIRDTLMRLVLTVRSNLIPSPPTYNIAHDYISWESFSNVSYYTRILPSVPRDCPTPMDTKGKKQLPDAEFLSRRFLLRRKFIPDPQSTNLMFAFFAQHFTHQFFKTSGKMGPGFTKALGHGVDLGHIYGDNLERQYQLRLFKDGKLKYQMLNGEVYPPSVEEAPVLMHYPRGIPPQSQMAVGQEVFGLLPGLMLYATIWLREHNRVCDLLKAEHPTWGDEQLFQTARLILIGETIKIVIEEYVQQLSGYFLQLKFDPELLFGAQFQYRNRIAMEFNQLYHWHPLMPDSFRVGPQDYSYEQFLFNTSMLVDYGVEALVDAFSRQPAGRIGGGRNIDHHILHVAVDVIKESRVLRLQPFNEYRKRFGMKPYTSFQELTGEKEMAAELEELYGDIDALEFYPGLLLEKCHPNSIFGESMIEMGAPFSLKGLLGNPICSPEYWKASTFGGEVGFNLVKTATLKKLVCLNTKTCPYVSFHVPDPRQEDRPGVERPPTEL", "assay": "COX-1 inhibition assay (Cayman Chem kit)"}, "COX-2": {"molecular_target": "T2, COX-2 (Homo sapiens, UniProt P35354)", "T2 sequence (P35354 18-604)": "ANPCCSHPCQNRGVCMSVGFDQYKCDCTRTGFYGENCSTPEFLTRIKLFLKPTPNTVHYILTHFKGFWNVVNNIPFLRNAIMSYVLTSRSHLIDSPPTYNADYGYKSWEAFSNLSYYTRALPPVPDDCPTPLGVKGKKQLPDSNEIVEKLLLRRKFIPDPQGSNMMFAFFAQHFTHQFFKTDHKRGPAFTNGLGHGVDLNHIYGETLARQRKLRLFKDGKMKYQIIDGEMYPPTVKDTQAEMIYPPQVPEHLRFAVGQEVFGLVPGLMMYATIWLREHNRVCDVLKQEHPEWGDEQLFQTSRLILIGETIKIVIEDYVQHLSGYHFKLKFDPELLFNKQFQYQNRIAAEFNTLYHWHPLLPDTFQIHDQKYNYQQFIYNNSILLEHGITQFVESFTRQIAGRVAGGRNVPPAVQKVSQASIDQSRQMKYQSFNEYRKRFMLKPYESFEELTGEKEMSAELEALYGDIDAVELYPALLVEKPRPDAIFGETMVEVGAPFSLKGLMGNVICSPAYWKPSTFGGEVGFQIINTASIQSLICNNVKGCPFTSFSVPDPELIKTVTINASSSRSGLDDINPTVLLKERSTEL", "assay": "COX-2 inhibition assay (Cayman Chem kit)"}, "[1]": {"test_system": "L. grandiflorum callus cultures", "assay": "Biomass accumulation of callus cultures", "format": "cell-based, Linum grandiflorum", "details": "harvested day 30", "description": "(§1) Both the cotyledon (0.5 cm) and hypocotyl (1.0 cm) explants of L. grandiflorum of 5-day old seedlings, grown in vitro, were employed as the source of the explants and inoculated on three different experimental media containing sucrose (30g/L), agar (8 g/L) along with various concentrations of α-naphthaleneacetic acid (NAA: 0.1, 1.0, 2.5, 5.0, 10 mg/L), thidiazuron (TDZ: 0.1, 1.0, 2.5, 5.0, 10 mg/L) and a combination of both (TDZ: 0.1, 1.0, 2.5, 5.0, 10 mg/L and NAA: 0.1 mg/L constant) and placed in a growth room at 25 ± 2 °C temperature, using light intensity of 40 μmol/m^2/s at around a 16/8 h (light/dark) photoperiod. Four explants were inoculated for each condition. All experiments were conducted twice for each treatment. Media without PGRs addition were used as controls. The cultures were harvested at day 30 after inoculation. Biomass determination (fresh weights (FW) and dried weight (DW)) were determined for each condition. For dry weight (DW) estimation, cells were frozen and lyophilized 48 h."}, "[2]": {"test_system": "L. grandiflorum hypocotyl and cotyledon explants", "assay": "Callus induction frequency on MS medium with PGRs", "format": "cell-based, Linum grandiflorum", "details": "1.0 mg/L NAA", "description": "as §1"}, "[3]": {"details": "read-out: COX-1 IC50 (in µM), purified (neo)lignans"}, "[4]": {"details": "read-out: COX-2 IC50 (in µM), purified (neo)lignans"}},
  "note": "Several values for one entry are separate records, joined by “and”; a condition that tells them apart may be missing. Equal entries are not always repeated. Where two headings read alike, the source gives them in different places.",
  "data": [
    {"molecule": "COc1cc(C2Oc3c(OC)cc(/C=C/CO)cc3C2CO)ccc1O", "note": "(stereo not shown) [DCA, dehydrodiconiferyl alcohol]", "values": [
      {"measurement": "IC50", "setting": "COX-1; [3]", "value": "51.3 ± 0.3", "unit": "µM"},
      {"measurement": "IC50", "setting": "COX-2; [4]", "value": "19.2 ± 2.5", "unit": "µM"}
    ]},
    {"molecule": "COc1cc(C[C@H]2CO[C@H](c3ccc(O)c(OC)c3)[C@H]2CO)ccc1O", "note": "[LARI, lariciresinol]", "values": [
      {"measurement": "IC50", "setting": "COX-1", "value": "24.2 ± 6.9", "unit": "µM"},
      {"measurement": "IC50", "setting": "COX-2", "value": "34.6 ± 2.9", "unit": "µM"}
    ]},
    {"molecule": "O=C(O)Cc1cccc2ccccc12", "note": "[NAA, α-naphthalene acetic acid]", "values": [
      {"measurement": "biomass accumulation (DW)", "setting": "[1]; cotyledon-derived callus, 1.0 mg/L NAA", "value": 11.4, "unit": "g/L"},
      {"measurement": "biomass accumulation (DW)", "setting": "[1]; hypocotyl-derived callus", "value": 13, "unit": "g/L"},
      {"measurement": "callus induction frequency", "setting": "[2]; cotyledon explants", "value": 87, "unit": "%"},
      {"measurement": "callus induction frequency", "setting": "[2]; hypocotyl explants", "value": "95% and 95.2%"}
    ]},
    {"molecule": "COc1cc(C[C@@H](CO)[C@H](CO)Cc2ccc(O)c(OC)c2)ccc1O", "note": "[SECO, secoisolariciresinol]", "values": [
      {"measurement": "IC50", "setting": "COX-1; [3]", "value": "21.7 ± 1.9", "unit": "µM"},
      {"measurement": "IC50", "setting": "COX-2; [4]", "value": "32.7 ± 0.8", "unit": "µM"}
    ]}
  ]
}
